Test results from PubChem BioAssay AID1963961 (Molecular Pharmacology Branch, DTP, NCI, 2024).

Tested on: K98450-129-R-PDC multicell spheroids, viability
Assay: Anticancer human tumor K98450-129-R-PDC patient-derived colon adenocarcinoma cell line growth inhibition [PI3K]
Settings: for IC50: curve of first compound; for viability, T/C: stronger effect = lower value; active means viability on the fitted dose curve at most 10% of control; inactive means the rest
From the text: Combinatorial screen of targeted agents with the PI3K inhibitors inavolisib, alpelisib, duvelisib, and copanlisib in multi-cell type tumor spheroids
A high-throughput screen of multi-cell type tumor spheroids was designed to identify active combinations of targeted small molecules and PI3K pathway inhibitors. Complex spheroids include a stromal component modeled by human endothelial cells (HUVEC) and fibroblasts modeled by human mesenchymal stem cells (MSCs). The concentration ranges selected for each drug and investigational agent were based upon clinically achievable concentrations if the clinical Cmax of the agent was known.
Compounds. The drugs and investigational agents: inavolisib (NSC800729), alpelisib (NSC765974), duvelisib (NSC772469), copanlisib (NSC816437), ipatasertib (NSC767898), afuresertib (NSC778305), talazoparib (NSC767125), sapanisertib (NSC764658), selumetinib (NSC741078), tovorafenib (DAY101, NSC766906), vemurafenib (NSC761431), ravoxertinib (NSC781343), sotorasib (NSC818433), MRTX1133 (NSC 836407), abemaciclib (NSC 768073), palbociclib (NSC758247), venetoclax (NSC 766270), SY5609 (NSC837396), enzalutamide (NSC755605), and darolutamide (NSC825331), were obtained from the National Cancer Institute (NCI) Developmental Therapeutics Program Chemical Repository. The FDA-approved anticancer drug set is available from the NCI Developmental Therapeutics Program. […] The stock solutions were prepared in dimethyl sulfoxide (DMSO, Sigma-Aldrich, St. Louis, MO, cat. D2650) at 800-fold the tested concentration and stored at -70 degrees C prior to their use. All drugs and investigational agents were tested over a range starting from a high concentration at or near the clinical Cmax and decreasing in half-log increments. If the clinical Cmax for an agent had not been determined, the highest concentration tested was 10 microM.
Cell Culture. All cells were maintained in an incubator at 37 degrees C and 5% CO2 with 95% humidity. The PDC lines were cultured according to standard operating procedures established by the NCI PDMR (https://pdmr.cancer.gov/sops/default.htm). All PDCs were thawed and cultured in Matrigel-coated flasks prepared with a working solution of 1X Ham's F-12 nutrient mix, without supplementation (Invitrogen, Waltham, MA, cat. 11765054), 100 U/mL penicillin-streptomycin (Invitrogen, cat. 15140122), and 2.5% Matrigel (Corning Inc., Corning, NY, cat. 354248) for the first three passages. The 354836-022-R-J1-PDC, 475296-252-R-J1-PDC, and 997726-040-R-J2-PDC lines were cultured in 6A media, which includes advanced DMEM/F-12 (Thermo Fisher Scientific, cat. 12634028), 10 mM HEPES (Thermo Fisher Scientific, cat. 15630080), 1X GlutaMAX supplement (Thermo Fisher Scientific, cat. 35050061), 0.1 mg/mL primocin (InvivoGen, San Diego, CA, cat. ant-pm-2), 10% defined fetal bovine serum, heat inactivated (HyClone Laboratories Inc., Logan, UT, cat. SH30070.03HI), 50% L-WRN conditioned media (ATCC, cat. CRL-3276), 1.25 mM N-Acetyl-L-cysteine (Sigma-Aldrich, cat. A9165), 10 mM nicotinamide (Sigma-Aldrich, cat. N0636), 1X B-27 supplement (Thermo Fisher Scientific, cat. 17504044), 1X N-2 supplement (Thermo Fisher Scientific, cat. 17502048), and 10 microM Y-27632 dihydrochloride (Tocris Bioscience, Bristol, United Kingdom, cat. 1254). The 624824-186-R-J2-PDC line was cultured in 6C/Colon 1B media, which includes all 6A media components plus 50 ng/mL human EGF recombinant protein (Thermo Fisher Scientific, cat. PHG0311). […]

[1] = second compound 0.00316 µM, first compound 0.000316 µM
[2] = second compound 0.00316 µM, first compound 0.001 µM
[3] = second compound 0.00316 µM, first compound 0.00316 µM
[4] = second compound 0.00316 µM, first compound 0.01 µM
[5] = second compound 0.00316 µM, first compound 0.0316 µM
[6] = second compound 0.00316 µM, first compound 0.1 µM
[7] = second compound 0.01 µM, first compound 0.000316 µM
[8] = second compound 0.01 µM, first compound 0.001 µM
[9] = second compound 0.01 µM, first compound 0.00316 µM
[10] = second compound 0.01 µM, first compound 0.01 µM
[11] = second compound 0.01 µM, first compound 0.0316 µM
[12] = second compound 0.01 µM, first compound 0.1 µM
[13] = second compound 0.0316 µM, first compound 0.000316 µM
[14] = second compound 0.0316 µM, first compound 0.001 µM
[15] = second compound 0.0316 µM, first compound 0.00316 µM
[16] = second compound 0.0316 µM, first compound 0.01 µM
[17] = second compound 0.0316 µM, first compound 0.0316 µM
[18] = second compound 0.0316 µM, first compound 0.1 µM
[19] = second compound 0.1 µM, first compound 0.000316 µM
[20] = second compound 0.1 µM, first compound 0.001 µM
[21] = second compound 0.1 µM, first compound 0.00316 µM
[22] = second compound 0.1 µM, first compound 0.01 µM
[23] = second compound 0.1 µM, first compound 0.0316 µM
[24] = second compound 0.1 µM, first compound 0.1 µM
[25] = second compound 0.316 µM, first compound 0.000316 µM
[26] = second compound 0.316 µM, first compound 0.001 µM
[27] = second compound 0.316 µM, first compound 0.00316 µM
[28] = second compound 0.316 µM, first compound 0.01 µM
[29] = second compound 0.316 µM, first compound 0.0316 µM
[30] = second compound 0.316 µM, first compound 0.1 µM
[31] = second compound 1 µM, first compound 0.000316 µM
[32] = second compound 1 µM, first compound 0.001 µM
[33] = second compound 1 µM, first compound 0.00316 µM
[34] = second compound 1 µM, first compound 0.01 µM
[35] = second compound 1 µM, first compound 0.0316 µM
[36] = second compound 1 µM, first compound 0.1 µM
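Further: spheroids exposed to agents for seven days before read-out.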

CC(=O)c1c(C)c2cnc(Nc3ccc(N4CCNCC4)cn3)nc2n(C2CCCC2)c1=O + CC(Nc1ccc2c(c1)OCCn1cc(N3C(=O)OCC3C(F)F)nc1-2)C(N)=O
> 100 nM: IC50 (second compound 0.00316 µM) | IC50 (second compound 0.01 µM) | IC50 (second compound 0.0316 µM) | IC50 (second compound 0.1 µM) | IC50 (second compound 0.316 µM) | IC50 (second compound 1 µM)
inactive: viability, T/C [1] 113% | viability, T/C [2] 103% | viability, T/C [3] 105% | viability, T/C [4] 97.2% | viability, T/C [5] 99.9% | viability, T/C [6] 95.7% | viability, T/C [7] 109% | viability, T/C [8] 101% | viability, T/C [9] 104% | viability, T/C [10] 91.2% | viability, T/C [11] 103% | viability, T/C [12] 92.8% | viability, T/C [13] 111% | viability, T/C [14] 95.7% | viability, T/C [15] 103% | viability, T/C [16] 94.9% | viability, T/C [17] 100% | viability, T/C [18] 95.6% | viability, T/C [19] 97.7% | viability, T/C [20] 100% | viability, T/C [21] 92.7% | viability, T/C [22] 94.8% | viability, T/C [23] 99.1% | viability, T/C [24] 103% | viability, T/C [25] 94.3% | viability, T/C [26] 96.5% | viability, T/C [27] 100% | viability, T/C [28] 93.3% | viability, T/C [29] 103% | viability, T/C [30] 91.4% | viability, T/C [31] 89% | viability, T/C [32] 95.8% | viability, T/C [33] 94.1% | viability, T/C [34] 95.2% | viability, T/C [35] 96.1% | viability, T/C [36] 82%

CC(C)n1nc(-c2ccc3oc(N)nc3c2)c2c(N)ncnc21 + CC(Nc1ccc2c(c1)OCCn1cc(N3C(=O)OCC3C(F)F)nc1-2)C(N)=O
inactive: viability, T/C [1] 106% | viability, T/C [2] 93.9% | viability, T/C [3] 97.1% | viability, T/C [4] 94.7% | viability, T/C [5] 90.3% | viability, T/C [6] 78.8% | viability, T/C [7] 115% | viability, T/C [8] 100% | viability, T/C [9] 103% | viability, T/C [10] 91.1% | viability, T/C [11] 96.1% | viability, T/C [12] 77.2% | viability, T/C [13] 99% | viability, T/C [14] 98.9% | viability, T/C [15] 99.4% | viability, T/C [16] 94.5% | viability, T/C [17] 96.5% | viability, T/C [18] 74% | viability, T/C [19] 100% | viability, T/C [20] 102% | viability, T/C [21] 95.4% | viability, T/C [22] 91.3% | viability, T/C [23] 93.1% | viability, T/C [24] 71.5% | viability, T/C [25] 93.1% | viability, T/C [26] 93.2% | viability, T/C [27] 99.7% | viability, T/C [28] 88.2% | viability, T/C [29] 79.1% | viability, T/C [30] 77.7% | viability, T/C [31] 87.2% | viability, T/C [32] 89.7% | viability, T/C [33] 81.3% | viability, T/C [34] 82.2% | viability, T/C [35] 80.9% | viability, T/C [36] 67.1%
> 100 nM: IC50 (second compound 0.00316 µM) | IC50 (second compound 0.01 µM) | IC50 (second compound 0.0316 µM) | IC50 (second compound 0.1 µM) | IC50 (second compound 0.316 µM) | IC50 (second compound 1 µM)

CCCS(=O)(=O)Nc1ccc(F)c(C(=O)c2c[nH]c3ncc(-c4ccc(Cl)cc4)cc23)c1F + CC(Nc1ccc2c(c1)OCCn1cc(N3C(=O)OCC3C(F)F)nc1-2)C(N)=O
inactive: viability, T/C [5] 113% | viability, T/C [6] 104% | viability, T/C (second compound 0.00316 µM, first compound 0.316 µM) 112% | viability, T/C (second compound 0.00316 µM, first compound 1 µM) 111% | viability, T/C (second compound 0.00316 µM, first compound 3.16 µM) 135% | viability, T/C (second compound 0.00316 µM, first compound 10 µM) 14.1% | viability, T/C [11] 117% | viability, T/C [12] 110% | viability, T/C (second compound 0.01 µM, first compound 0.316 µM) 114% | viability, T/C (second compound 0.01 µM, first compound 1 µM) 105% | viability, T/C (second compound 0.01 µM, first compound 3.16 µM) 148% | viability, T/C [17] 97% | viability, T/C [18] 105% | viability, T/C (second compound 0.0316 µM, first compound 0.316 µM) 100% | viability, T/C (second compound 0.0316 µM, first compound 1 µM) 105% | viability, T/C (second compound 0.0316 µM, first compound 3.16 µM) 136% | viability, T/C (second compound 0.0316 µM, first compound 10 µM) 10.4% | viability, T/C [23] 96.5% | viability, T/C [24] 102% | viability, T/C (second compound 0.1 µM, first compound 0.316 µM) 97.9% | viability, T/C (second compound 0.1 µM, first compound 1 µM) 101% | viability, T/C (second compound 0.1 µM, first compound 3.16 µM) 130% | viability, T/C (second compound 0.1 µM, first compound 10 µM) 10.7% | viability, T/C [29] 90.6% | viability, T/C [30] 93.7% | viability, T/C (second compound 0.316 µM, first compound 0.316 µM) 98.5% | viability, T/C (second compound 0.316 µM, first compound 1 µM) 98.4% | viability, T/C (second compound 0.316 µM, first compound 3.16 µM) 113% | viability, T/C (second compound 0.316 µM, first compound 10 µM) 10.5% | viability, T/C [35] 88.3% | viability, T/C [36] 88.8% | viability, T/C (second compound 1 µM, first compound 0.316 µM) 91.4% | viability, T/C (second compound 1 µM, first compound 1 µM) 97% | viability, T/C (second compound 1 µM, first compound 3.16 µM) 91.2% | viability, T/C (second compound 1 µM, first compound 10 µM) 12.5%
5980 nM: IC50 (second compound 0.316 µM)
6200 nM: IC50 (second compound 0.1 µM)
6290 nM: IC50 (second compound 0.0316 µM)
6480 nM: IC50 (second compound 0.01 µM)
active: viability, T/C (second compound 0.01 µM, first compound 10 µM) 8.38%
6630 nM: IC50 (second compound 0.00316 µM)
5780 nM: IC50 (second compound 1 µM)
